Results published in PubChem BioAssay (NCI).
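48-hour exposure; five concentrations; linearly interpolated endpoints. GI50 is the concentration that inhibits growth by half. TGI: total growth inhibition.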

Assays:
Test in all cases: inhibition of tumour cell growth, NCI panel, 48 h
[1] = system: IGROV1 ovarian
[2] = system: KM12 colon
[3] = system: HOP-62 NSCLC
[4] = system: UACC-257 melanoma
[5] = system: NCI-H23 lung
[6] = system: SR leukemia
[7] = system: HOP-92 NSCLC
[8] = system: UACC-62 melanoma
[9] = system: 786-0 renal
[10] = system: NCI/ADR-RES ovarian

CCCOc1ccc(/C=C/c2cc(OC)c(OC)c(OC)c2)cc1
TGI [1]: > 100 µM
TGI [2]: > 25.4 µM
GI50 [3]: 0.32 µM
TGI [3]: > 100 µM
TGI [4]: 39.3 µM
TGI [5]: 0.706 µM
TGI [6]: 31.2 µM
TGI [7]: 7.41 µM
TGI [8]: > 100 µM
TGI [9]: > 56.3 µM

COc1cc2c(/C=C3/C(=O)Nc4ccccc43)c(Cl)n(Cc3ccccc3)c2cc1C
GI50 [1]: > 100 µM
TGI [1]: > 100 µM
GI50 [2]: > 100 µM
TGI [2]: > 100 µM
GI50 [3]: > 100 µM
TGI [3]: > 100 µM
GI50 [4]: > 100 µM
TGI [4]: > 100 µM
GI50 [5]: > 100 µM
TGI [5]: > 100 µM
GI50 [7]: > 100 µM
TGI [7]: > 100 µM
GI50 [8]: > 100 µM
TGI [8]: > 100 µM
GI50 [9]: > 100 µM
TGI [9]: > 100 µM
GI50 [10]: > 100 µM
TGI [10]: > 100 µM

CC(=O)/C=C1/c2ccccc2N(C(C)=O)C1O (stereo unspecified)
TGI [1]: > 100 µM
TGI [2]: > 100 µM
TGI [3]: > 100 µM
TGI [4]: > 100 µM
TGI [5]: > 100 µM
TGI [6]: > 100 µM
TGI [7]: > 100 µM
TGI [8]: > 100 µM
TGI [9]: > 100 µM

CN1C(c2ccccc2)CC(=Nc2ccccc2)CC1c1ccccc1 (stereo unspecified)
TGI [1]: 38.4 µM
TGI [3]: 34.6 µM
TGI [4]: 24.1 µM
TGI [5]: 39.9 µM
TGI [6]: 34.5 µM
TGI [7]: 22 µM
TGI [9]: 27.7 µM

COC(=O)c1nc(-c2ccc(Cl)c(Cl)c2)nc2ccccc12
TGI [1]: > 100 µM
TGI [2]: > 100 µM
TGI [3]: 62.8 µM
TGI [4]: > 100 µM
TGI [5]: > 100 µM
TGI [8]: > 100 µM
TGI [9]: 47.8 µM

COc1cc(C)cc2c1OC(c1ccccc1)CC2=O (stereo unspecified)
GI50 [1]: > 100 µM
TGI [1]: > 100 µM
GI50 [2]: > 100 µM
TGI [2]: > 100 µM
GI50 [3]: > 100 µM
TGI [3]: > 100 µM
GI50 [4]: > 100 µM
TGI [4]: > 100 µM
GI50 [5]: > 100 µM
TGI [5]: > 100 µM
GI50 [6]: > 100 µM
TGI [6]: > 100 µM
GI50 [8]: > 100 µM
TGI [8]: > 100 µM
GI50 [9]: > 100 µM
TGI [9]: > 100 µM
GI50 [10]: > 100 µM
TGI [10]: > 100 µM

[N-]=[N+]=Nc1ncc(-c2ccc(C(F)(F)F)cc2)c(NC2CCCCCC2)n1
GI50 [1]: > 10 µM
TGI [1]: > 10 µM
GI50 [2]: > 10 µM
TGI [2]: > 10 µM
GI50 [3]: > 10 µM
TGI [3]: > 10 µM
GI50 [4]: > 10 µM
TGI [4]: > 10 µM
GI50 [5]: > 10 µM
TGI [5]: > 10 µM
GI50 [6]: > 10 µM
TGI [6]: > 10 µM
GI50 [8]: > 10 µM
TGI [8]: > 10 µM
GI50 [9]: > 10 µM
TGI [9]: > 10 µM
GI50 [10]: > 10 µM
TGI [10]: > 10 µM

C=CCOc1cc2c(cc1C(C)c1ccc(OC)cc1)OCO2 (stereo unspecified)
TGI [1]: > 100 µM
TGI [2]: 65.9 µM
TGI [3]: > 62.7 µM
TGI [4]: 6.44 µM
TGI [5]: > 100 µM
TGI [6]: 0.695 µM
TGI [8]: > 87.5 µM
TGI [9]: > 100 µM

COc1ccc2[nH]c3c(cnn4cnnc34)c2c1
TGI [1]: > 100 µM
TGI [2]: > 100 µM
TGI [3]: > 100 µM
TGI [4]: > 100 µM
TGI [5]: > 100 µM
TGI [7]: > 100 µM
TGI [8]: > 100 µM
TGI [9]: > 100 µM

Cc1ccc2sc3cc(=O)cc(C)c-3nc2c1
TGI [1]: > 100 µM
TGI [2]: > 100 µM
TGI [3]: > 100 µM
TGI [4]: > 100 µM
TGI [5]: > 100 µM
TGI [6]: > 100 µM
TGI [7]: > 100 µM
TGI [8]: 36 µM
TGI [9]: > 100 µM

CCCOc1ccc(/C=C\c2cc(OC)c(OC)c(OC)c2)cc1
TGI [1]: > 100 µM
TGI [2]: 89.5 µM
TGI [3]: > 100 µM
TGI [4]: > 100 µM
TGI [7]: > 100 µM
TGI [8]: > 100 µM
TGI [9]: > 100 µM

CCOC(=O)c1sc(=S)c2c(C(=O)c3ccccc3)c(C(=O)c3ccccc3)sc2c1C(=O)OCC
GI50 [1]: 5.24 µM
TGI [1]: 85.7 µM
GI50 [2]: 2.44 µM
TGI [2]: 11 µM
GI50 [3]: 9.16 µM
TGI [3]: > 100 µM
GI50 [4]: 3.45 µM
TGI [4]: 25.7 µM
GI50 [6]: 2.58 µM
TGI [6]: 5.98 µM
GI50 [7]: 4.74 µM
TGI [7]: 90.1 µM
GI50 [8]: 2.99 µM
TGI [8]: 17.8 µM
GI50 [9]: 6.8 µM
TGI [9]: > 100 µM

Cc1cc2c(C(C)C)c(O)c(O)c3coc(/c1=c1/c(C)cc4c(C(C)C)c(=O)c(=O)c5coc1c45)c32
TGI [1]: 15.1 µM
TGI [2]: 14.9 µM
TGI [3]: 23.7 µM
TGI [4]: 31 µM
TGI [5]: 9.2 µM
TGI [7]: 7.11 µM
TGI [8]: 13.5 µM
TGI [9]: 22.1 µM

CCc1ccccc1NC(=O)CCc1nc(=S)[nH][nH]1
TGI [1]: > 100 µM
TGI [2]: > 100 µM
TGI [3]: > 100 µM
TGI [4]: > 100 µM
TGI [5]: > 100 µM
TGI [6]: > 100 µM
TGI [7]: > 100 µM
TGI [8]: > 100 µM
TGI [9]: > 100 µM

Cc1cc2c(cn1)C(=O)OCC2
TGI [1]: > 100 µM
TGI [2]: > 100 µM
TGI [3]: > 100 µM
TGI [4]: > 100 µM
TGI [5]: > 100 µM
TGI [6]: > 100 µM
TGI [8]: > 100 µM
TGI [9]: > 100 µM

Cc1ccccc1C(C#N)/C(=N/NC(=O)c1cc2ccccc2cc1O)C(=O)Nc1cccc(Cl)c1 (stereo unspecified)
TGI [1]: 65.3 µM
TGI [2]: > 100 µM
TGI [3]: > 100 µM
TGI [4]: 76.1 µM
TGI [5]: 51.2 µM
TGI [6]: 84.5 µM
TGI [7]: > 100 µM
TGI [8]: 18.1 µM
TGI [9]: > 100 µM

C/C(=N\NC(N)=S)c1ccc(/C(C)=N/NC(N)=S)cc1
TGI [1]: > 100 µM
TGI [2]: > 100 µM
TGI [3]: > 100 µM
TGI [4]: > 100 µM
TGI [5]: > 100 µM
TGI [6]: > 100 µM
TGI [7]: > 100 µM
TGI [8]: > 100 µM
TGI [9]: > 100 µM

CCCCCCN1C(=O)/C(=c2\sc3n(c2=O)C2C(NN=3)N(CC)C(=O)N2CC)c2ccccc21 (stereo unspecified)
GI50 [1]: 1.63 µM
TGI [1]: > 50 µM
GI50 [2]: 1.46 µM
TGI [2]: > 50 µM
GI50 [3]: 1.71 µM
TGI [3]: > 50 µM
GI50 [4]: 3.09 µM
TGI [4]: > 50 µM
GI50 [5]: 2.05 µM
TGI [5]: > 50 µM
GI50 [6]: 1.73 µM
TGI [6]: > 50 µM
GI50 [8]: 2.89 µM
TGI [8]: > 50 µM
GI50 [9]: 1.6 µM
TGI [9]: > 50 µM

CC1(C)CCSC(/C=C/c2ccccc2)=N1
TGI [1]: 37.8 µM
TGI [2]: 26.1 µM
TGI [3]: 32.8 µM
TGI [4]: 27 µM
TGI [5]: 33.9 µM
TGI [7]: 35.9 µM
TGI [9]: 25.6 µM
TGI [10]: 38.2 µM

COc1ccccc1NC(=O)CC(=O)n1nc(C)c(N=Nc2ccccc2F)c1C
TGI [1]: > 100 µM
TGI [2]: > 100 µM
TGI [3]: > 83.9 µM
TGI [4]: > 100 µM
TGI [5]: > 100 µM
TGI [6]: > 100 µM
TGI [7]: > 100 µM
TGI [8]: > 100 µM
TGI [9]: > 100 µM
